The record followed here is patent US20240024488A1, “COMPOUNDS AND USES THEREOF” (Foghorn Therapeutics Inc., priority 2020, published 2024).

For assay [1], the target named is T1, HiBit-BRM fusion protein (Homo sapiens, UniProt P51531).
T1 construct: expressed in transfected cells
As to the kind of experiment: HiBiT-BRM cell-based degradation assay (Nano-Glo HiBiT Lytic Detection, 24 h). Conditions: HeLa cell line expressing HiBiT-BRM; for DC50: read-out: BRM HiBit Degradation IC50. In a few lines:
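Stable HiBiT-BRM HeLa line; 24 h compound exposure, top final 30 μM, 3-fold, 10 pts in duplicate. Lytic HiBiT/LgBiT luminescence readout. % degradation vs DMSO (0%) and 2 μM known BRM/BRG1 degrader (100%).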

Assay [2] deals with T2, HiBit-BRG1 fusion protein (Homo sapiens, UniProt P51532).
T2 construct: expressed in transfected cells
T2 sequence (P51532 whole entry, the tested form may be a part): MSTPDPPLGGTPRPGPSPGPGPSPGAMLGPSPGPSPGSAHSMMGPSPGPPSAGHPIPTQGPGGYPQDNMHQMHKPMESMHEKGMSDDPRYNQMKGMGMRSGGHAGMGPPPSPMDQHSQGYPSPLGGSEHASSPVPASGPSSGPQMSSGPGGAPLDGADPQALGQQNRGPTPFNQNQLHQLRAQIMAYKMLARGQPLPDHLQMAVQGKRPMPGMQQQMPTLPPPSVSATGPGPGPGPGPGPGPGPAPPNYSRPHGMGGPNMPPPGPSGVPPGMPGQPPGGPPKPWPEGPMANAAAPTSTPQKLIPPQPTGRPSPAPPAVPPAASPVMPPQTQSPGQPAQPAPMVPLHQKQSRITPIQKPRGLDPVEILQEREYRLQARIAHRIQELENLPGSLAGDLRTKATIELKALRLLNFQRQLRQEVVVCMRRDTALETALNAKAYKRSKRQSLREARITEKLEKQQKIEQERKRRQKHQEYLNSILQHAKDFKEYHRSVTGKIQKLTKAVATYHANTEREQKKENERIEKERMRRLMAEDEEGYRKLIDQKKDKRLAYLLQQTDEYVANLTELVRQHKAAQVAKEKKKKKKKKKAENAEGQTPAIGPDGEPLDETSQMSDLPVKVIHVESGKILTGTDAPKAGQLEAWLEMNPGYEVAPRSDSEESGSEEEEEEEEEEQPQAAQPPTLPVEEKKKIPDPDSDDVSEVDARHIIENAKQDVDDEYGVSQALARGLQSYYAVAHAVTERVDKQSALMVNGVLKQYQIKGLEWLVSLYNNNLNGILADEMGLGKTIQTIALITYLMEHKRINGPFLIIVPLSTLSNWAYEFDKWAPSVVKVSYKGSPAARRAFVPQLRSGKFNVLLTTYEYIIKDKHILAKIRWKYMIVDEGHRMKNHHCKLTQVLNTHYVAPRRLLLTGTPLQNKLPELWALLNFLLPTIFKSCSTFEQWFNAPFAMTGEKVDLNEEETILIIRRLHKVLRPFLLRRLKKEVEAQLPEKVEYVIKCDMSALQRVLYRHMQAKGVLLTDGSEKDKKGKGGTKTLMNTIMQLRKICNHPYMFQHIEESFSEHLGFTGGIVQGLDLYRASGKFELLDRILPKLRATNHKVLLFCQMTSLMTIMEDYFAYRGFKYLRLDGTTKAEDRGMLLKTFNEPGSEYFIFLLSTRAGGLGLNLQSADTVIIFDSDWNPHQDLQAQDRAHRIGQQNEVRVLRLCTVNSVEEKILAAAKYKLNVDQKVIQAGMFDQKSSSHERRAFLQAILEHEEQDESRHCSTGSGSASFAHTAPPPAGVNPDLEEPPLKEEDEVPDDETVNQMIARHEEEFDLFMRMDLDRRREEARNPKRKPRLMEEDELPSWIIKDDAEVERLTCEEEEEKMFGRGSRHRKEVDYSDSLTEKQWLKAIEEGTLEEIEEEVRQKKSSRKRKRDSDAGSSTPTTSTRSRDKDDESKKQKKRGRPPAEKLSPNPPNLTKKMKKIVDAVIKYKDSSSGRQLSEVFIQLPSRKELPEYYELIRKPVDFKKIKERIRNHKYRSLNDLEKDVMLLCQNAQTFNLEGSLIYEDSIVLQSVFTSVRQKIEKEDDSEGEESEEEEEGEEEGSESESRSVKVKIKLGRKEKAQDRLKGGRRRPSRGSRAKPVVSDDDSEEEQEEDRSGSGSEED
Description: HiBiT-BRG1 cell-based degradation assay (Nano-Glo HiBiT Lytic Detection, 24 h). Conditions: HeLa cell line expressing HiBit-BRG1 and LgBit; for Dmax: read-out: BRG1 HiBit Degradation Maximum (%); for DC50: read-out: BRMG1 HiBit Degradation IC50. The method, boiled down: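 Seed 5000 HeLa HiBit-BRG1/LgBit cells per well; treat 24 h; equilibrate 15 min at room temperature; add Nano-Glo HiBiT lytic reagent, shake 10 min, read luminescence. Percent degradation is scaled between DMSO and 2 μM reference degrader wells.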
(The HiBiT peptide binds its large partner to form an active luciferase.)

T1 sequence (P51531 whole entry, the tested form may be a part): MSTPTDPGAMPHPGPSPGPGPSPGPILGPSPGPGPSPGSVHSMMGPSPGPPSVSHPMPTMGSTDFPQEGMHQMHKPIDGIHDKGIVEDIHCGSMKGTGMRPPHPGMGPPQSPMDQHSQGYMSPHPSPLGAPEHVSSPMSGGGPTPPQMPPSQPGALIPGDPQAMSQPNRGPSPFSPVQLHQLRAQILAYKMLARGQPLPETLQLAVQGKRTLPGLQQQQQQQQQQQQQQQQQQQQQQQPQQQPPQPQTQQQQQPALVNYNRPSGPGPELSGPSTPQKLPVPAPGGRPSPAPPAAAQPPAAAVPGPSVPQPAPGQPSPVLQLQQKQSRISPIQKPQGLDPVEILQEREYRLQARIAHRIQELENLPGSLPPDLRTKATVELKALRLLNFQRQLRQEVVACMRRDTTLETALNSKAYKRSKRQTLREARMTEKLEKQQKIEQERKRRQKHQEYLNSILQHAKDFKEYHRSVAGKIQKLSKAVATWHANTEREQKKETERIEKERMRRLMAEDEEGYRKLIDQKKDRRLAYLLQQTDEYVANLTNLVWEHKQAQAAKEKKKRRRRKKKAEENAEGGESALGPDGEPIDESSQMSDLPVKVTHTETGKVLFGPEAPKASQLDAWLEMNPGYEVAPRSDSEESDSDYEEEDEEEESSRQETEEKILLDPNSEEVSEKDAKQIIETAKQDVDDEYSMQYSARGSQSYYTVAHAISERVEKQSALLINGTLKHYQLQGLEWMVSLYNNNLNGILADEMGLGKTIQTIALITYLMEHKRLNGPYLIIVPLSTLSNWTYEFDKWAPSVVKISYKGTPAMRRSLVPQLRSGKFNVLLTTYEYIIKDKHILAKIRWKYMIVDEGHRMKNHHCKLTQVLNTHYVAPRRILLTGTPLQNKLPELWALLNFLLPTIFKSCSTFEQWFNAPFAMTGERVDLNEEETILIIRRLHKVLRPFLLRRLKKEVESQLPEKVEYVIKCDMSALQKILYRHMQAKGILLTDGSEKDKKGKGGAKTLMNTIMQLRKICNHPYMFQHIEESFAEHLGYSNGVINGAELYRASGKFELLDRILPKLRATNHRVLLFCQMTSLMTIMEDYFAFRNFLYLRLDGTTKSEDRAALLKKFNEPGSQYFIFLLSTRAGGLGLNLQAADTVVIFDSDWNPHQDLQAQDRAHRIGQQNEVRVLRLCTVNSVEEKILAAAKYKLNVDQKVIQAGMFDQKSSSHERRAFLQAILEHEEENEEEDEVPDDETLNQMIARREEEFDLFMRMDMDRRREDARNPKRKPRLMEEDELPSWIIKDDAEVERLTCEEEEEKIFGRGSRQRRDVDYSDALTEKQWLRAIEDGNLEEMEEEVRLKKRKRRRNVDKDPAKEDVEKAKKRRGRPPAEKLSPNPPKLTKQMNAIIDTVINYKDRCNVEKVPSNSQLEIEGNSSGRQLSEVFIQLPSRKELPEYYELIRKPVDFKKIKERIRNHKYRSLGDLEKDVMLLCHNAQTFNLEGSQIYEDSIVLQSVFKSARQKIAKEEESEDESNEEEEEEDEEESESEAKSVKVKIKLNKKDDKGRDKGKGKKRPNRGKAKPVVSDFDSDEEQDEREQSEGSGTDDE

Take `Cc1ncsc1-c1ccc([C@H](C)NC(=O)[C@@H]2C[C@@H](O)CN2C(=O)[C@@H](c2cc(OCCN3C[C@@H]4[C@H](C3)[C@H]4c3[nH]c4nnc(-c5cc(F)cc(F)c5O)cc4c3C)no2)C(C)C)cc1` (racemic) [Compound 125, (2S,4R)-1-((R)-2-(3-(2-((1R,5S,6R)-6-(3-(3,5-difluoro-2-hydroxyphenyl)-5-methyl-7H-pyrrolo[2,3-c]pyridazin-6-yl)-3-azabicyclo[3.1.0]hexan-3-yl)ethoxy)isoxazol-5-yl)-3-methylbutanoyl)-4-hydroxy-N-((S)-1-(4-(4-methylthiazol-5-yl)phenyl)ethyl)pyrrolidine-2-carboxamide]: in assay [1], the “BRM HiBit Degradation Maximum (%)” value is “A (“A” indicates maximum degradation ≥ 75%)” and the DC50 is over 10 nM. Further, the Dmax in assay [2] is under 50%.
As to `Cc1ncsc1-c1ccc([C@H](C)NC(=O)[C@@H]2C[C@@H](O)CN2C(=O)[C@@H](c2cc(OCCNC34CC(c5[nH]c6nnc(-c7ccccc7O)cc6c5C)(C3)C4)no2)C(C)C)cc1` (racemic) [Compound 220, (2S,4R)-4-hydroxy-1-((R)-2-(3-(2-((3-(3-(2-hydroxyphenyl)-5-methyl-7H-pyrrolo[2,3-c]pyridazin-6-yl)bicyclo[1.1.1]pentan-1-yl)amino)ethoxy)isoxazol-5-yl)-3-methylbutanoyl)-N-((S)-1-(4-(4-methylthiazol-5-yl)phenyl)ethyl)pyrrolidine-2-carboxamide], in assay [1], the “BRM HiBit Degradation Maximum (%)” value is “A (“A” indicates maximum degradation ≥ 75%)” and the DC50 was under 10 nM. For the same compound, in assay [2], the Dmax is over 75% and the DC50 was over 10 nM.
`Cc1ncsc1-c1ccc([C@H](C)NC(=O)[C@@H]2C[C@@H](O)CN2C(=O)C(c2cc(OCC(=O)N[C@]3(C(=O)O)CCc4[nH]c5nnc(-c6ccccc6O)cc5c4C3)no2)C(C)C)cc1` (single isomer, unassigned) [Compound 89]: the “BRM HiBit Degradation Maximum (%)” value in assay [1] is reported as “C (“C” indicates maximum degradation < 50%)”. The Dmax in assay [2] was under 50%.
As for `Cc1ncsc1-c1ccc([C@H](C)NC(=O)[C@@H]2C[C@@H](O)CN2C(=O)[C@@H](c2cc(OCCN3CC(c4[nH]c5nnc(-c6ccccc6O)cc5c4F)C3)no2)C(C)C)cc1` (racemic) [Compound 121, (2S,4R)-1-[(2R)-2-[3-(2-{3-[5-fluoro-3-(2-hydroxyphenyl)-7H-pyrrolo[2,3-c]pyridazin-6-yl]azetidin-1-yl}ethoxy)-1,2-oxazol-5-yl]-3-methylbutanoyl]-4-hydroxy-N-[(1S)-1-[4-(4-methyl-1,3-thiazol-5-yl)phenyl]ethyl]pyrrolidine-2-carboxamide], in assay [1], the “BRM HiBit Degradation Maximum (%)” value was “A (“A” indicates maximum degradation ≥ 75%)” and the DC50 was over 100 nM. For the same compound, the Dmax in assay [2] was under 50%.
Regarding `Cc1ncsc1-c1ccc(CNC(=O)[C@@H]2C[C@@H](O)CN2C(=O)[C@@H](NC(=O)[C@H]2CC[C@H](c3cnc(N4CCC(c5cc6cc(-c7ccccc7O)nnc6[nH]5)CC4)nc3)CC2)C(C)(C)C)cc1` (racemic) [Compound 93, (2S,4R)-4-hydroxy-1-((S)-2-((1r,4S)-4-(2-(4-(3-(2-hydroxyphenyl)-7H-pyrrolo[2,3-c]pyridazin-6-yl)piperidin-1-yl)pyrimidin-5-yl)cyclohexane-1-carboxamido)-3,3-dimethylbutanoyl)-N-(4-(4-methylthiazol-5-yl)benzyl)pyrrolidine-2-carboxamide], in assay [1], the “BRM HiBit Degradation Maximum (%)” value is listed as “A (“A” indicates maximum degradation ≥ 75%)” and the DC50 is over 10 nM. Moreover, in assay [2], the Dmax is over 75% and the DC50 was over 100 nM.
Regarding `Cc1ncsc1-c1ccc([C@H](C)NC(=O)[C@@H]2C[C@@H](O)CN2C(=O)[C@@H](c2cc(N3CCC(C(=O)N[C@H]4CCc5[nH]c6nnc(-c7ccccc7O)cc6c5C4)CC3)no2)C(C)C)cc1` [Compound 144, 1-(5-((R)-1-((2S,4R)-4-hydroxy-2-(((S)-1-(4-(4-methylthiazol-5-yl)phenyl)ethyl)carbamoyl)pyrrolidin-1-yl)-3-methyl-1-oxobutan-2-yl)isoxazol-3-yl)-N-((S)-3-(2-hydroxyphenyl)-6,7,8,9-tetrahydro-5H-pyridazino[3,4-b]indol-6-yl)piperidine-4-carboxamide], in assay [1], the “BRM HiBit Degradation Maximum (%)” value was “A (“A” indicates maximum degradation ≥ 75%)” and the DC50 is over 10 nM. For the same compound, in assay [2], the Dmax is over 50% and the DC50 was over 100 nM.
Turning to `Cc1ncsc1-c1ccc([C@H](C)NC(=O)[C@@H]2C[C@@H](O)CN2C(=O)[C@@H](c2cc(OCCN3C[C@@H]4[C@H](C3)[C@H]4c3cc4cc(-c5cccc(Cl)c5O)nnc4[nH]3)no2)C(C)C)cc1` (racemic) [Compound 110, (2S,4R)-1-((R)-2-(3-(2-((1R,5S,6R)-6-(3-(3-chloro-2-hydroxyphenyl)-7H-pyrrolo[2,3-c]pyridazin-6-yl)-3-azabicyclo[3.1.0]hexan-3-yl)ethoxy)isoxazol-5-yl)-3-methylbutanoyl)-4-hydroxy-N-((S)-1-(4-(4-methylthiazol-5-yl)phenyl)ethyl)pyrrolidine-2-carboxamide], in assay [1], the “BRM HiBit Degradation Maximum (%)” value is recorded as “A (“A” indicates maximum degradation ≥ 75%)” and the DC50 is over 10 nM. Besides, in assay [2], the Dmax is under 50%.
For the compound `Cc1ncsc1-c1ccc([C@H](C)NC(=O)[C@@H]2C[C@@H](O)CN2C(=O)[C@@H](c2cc(OCCN3CC(c4cc5cc(-c6ccccc6O)nnc5[nH]4)C3)no2)C(C)C)cn1` (single isomer, unassigned) [Compound 219], in assay [1], the “BRM HiBit Degradation Maximum (%)” value was “A (“A” indicates maximum degradation ≥ 75%)” and the DC50 is over 100 nM. For the same compound, in assay [2], the Dmax was under 50%.
The like results for `Cc1ncsc1-c1ccc([C@H](C)NC(=O)[C@@H]2C[C@@H](O)CN2C(=O)[C@@H](NC(=O)CCCCCCCCCCCCC(=O)N2CC(c3cc4cc(-c5ccccc5O)nnc4[nH]3)C2)C(C)(C)C)cc1` [Compound 12, (2S,4R)-4-hydroxy-1-((S)-2-(14-(3-(3-(2-hydroxyphenyl)-7H-pyrrolo[2,3-c]pyridazin-6-yl)azetidin-1-yl)-14-oxotetradecanamido)-3,3-dimethylbutanoyl)-N-((S)-1-(4-(4-methylthiazol-5-yl)phenyl)ethyl)pyrrolidine-2-carboxamide] were, in that order, “A (“A” indicates maximum degradation ≥ 75%)”, over 100 nM and under 50%.
On to `Cc1ncsc1-c1ccc([C@H](C)NC(=O)[C@@H]2C[C@@H](O)CN2C(=O)[C@@H](c2cc(N(C)CCN3CCc4[nH]c5nnc(-c6ccccc6O)cc5c4C3)no2)C(C)C)cc1` (racemic) [Compound 182, (2S,4R)-4-hydroxy-1-((R)-2-(3-((2-(3-(2-hydroxyphenyl)-5,7,8,9-tetrahydro-6H-pyrido[3′,4′:4,5]pyrrolo[2,3-c]pyridazin-6-yl)ethyl)(methyl)amino)isoxazol-5-yl)-3-methylbutanoyl)-N-((S)-1-(4-(4-methylthiazol-5-yl)phenyl)ethyl)pyrrolidine-2-carboxamide], for which the “BRM HiBit Degradation Maximum (%)” value in assay [1] is on record as “C (“C” indicates maximum degradation < 50%)”. For the same compound, the Dmax in assay [2] is under 50%.
On to `Cc1ncsc1-c1ccc([C@H](C)NC(=O)[C@@H]2C[C@@H](O)CN2C(=O)[C@@H](c2cc(OCCN3CCC[C@@H]3c3cc4cc(-c5ccccc5O)nnc4[nH]3)no2)C(C)C)cc1` (racemic) [Compound 261, (2S,4R)-4-hydroxy-1-((R)-2-(3-(2-((R)-2-(3-(2-hydroxyphenyl)-7H-pyrrolo[2,3-c]pyridazin-6-yl)pyrrolidin-1-yl)ethoxy)isoxazol-5-yl)-3-methylbutanoyl)-N-((S)-1-(4-(4-methylthiazol-5-yl)phenyl)ethyl)pyrrolidine-2-carboxamide], for which the “BRM HiBit Degradation Maximum (%)” value in assay [1] was “C (“C” indicates maximum degradation < 50%)”. The Dmax in assay [2] is under 50%.
For the compound `Cc1ncsc1-c1ccc([C@H](C)NC(=O)[C@@H]2C[C@@H](O)CN2C(=O)[C@H](c2cc(N(C)CCN3CCc4[nH]c5nnc(-c6ccccc6O)cc5c4C3)no2)C(C)C)cc1` (racemic) [Compound 149, (2S,4R)-4-hydroxy-1-((S)-2-(3-((2-(3-(2-hydroxyphenyl)-5,7,8,9-tetrahydro-6H-pyrido[3′,4′:4,5]pyrrolo[2,3-c]pyridazin-6-yl)ethyl)(methyl)amino)isoxazol-5-yl)-3-methylbutanoyl)-N-((S)-1-(4-(4-methylthiazol-5-yl)phenyl)ethyl)pyrrolidine-2-carboxamide], the “BRM HiBit Degradation Maximum (%)” value in assay [1] was “C (“C” indicates maximum degradation < 50%)”. Moreover, the Dmax in assay [2] is under 50%.
For the compound `Cc1ncsc1-c1ccc(CNC(=O)[C@@H]2C[C@@H](O)CN2C(=O)[C@@H](NC(=O)CCCCCNCCC(=O)N2CC(c3cc4cc(-c5ccccc5O)nnc4[nH]3)C2)C(C)(C)C)cc1` (racemic) [Compound 55, (2S,4R)-4-hydroxy-1-((S)-2-(6-((3-(3-(3-(2-hydroxyphenyl)-7H-pyrrolo[2,3-c]pyridazin-6-yl)azetidin-1-yl)-3-oxopropyl)amino)hexanamido)-3,3-dimethylbutanoyl)-N-(4-(4-methylthiazol-5-yl)benzyl)pyrrolidine-2-carboxamide], the “BRM HiBit Degradation Maximum (%)” value in assay [1] is “C (“C” indicates maximum degradation < 50%)”. Also, the Dmax in assay [2] was under 50%.
